From PubChem BioAssay (NCI) come the findings set out here.

Among the test systems are SF-268 CNS; SNB-75 CNS; PC-3 prostate; CCRF-CEM leukemia; RXF 393 renal; T-47D breast; SW-620 colon; HCC-2998 colon; OVCAR-4 ovarian; MOLT-4 leukemia; HCT-116 colon; SF-539 CNS.
Holding throughout (assay): DTP human tumour cell line panel, 48 h

“And” between values parts separate entries of the source, which are not always exact repeats. Equal entries are not always repeated.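 Method: 48-hour compound exposure of cells in 96-well plates, five concentrations, linear interpolation of endpoints. TGI: concentration producing complete growth inhibition.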 Some results are limits rather than exact numbers.

Usually TGI stands for the concentration at which net growth stops. High values mean lower sensitivity of the cells, low ones greater sensitivity of the cells. Turning to `CCCCCCCCCCCC(=O)OC[C@@H](C[As](=O)(O)O)OC(=O)CCCCCCCCCCC`, the TGI was over 32.2 µM with SF-268 CNS; 16.6 µM in the test on SNB-75 CNS; 8.14 µM in the test with PC-3 prostate; over 94.4 µM in the test on CCRF-CEM leukemia; 6.99 µM in the test with RXF 393 renal; 37.7 µM in the test with T-47D breast. The TGI in the test with SW-620 colon was 29.1 µM; in the test with HCC-2998 colon it was 20.1 µM; with OVCAR-4 ovarian, 29.1 µM; with MOLT-4 leukemia it was over 77.2 µM; with HCT-116 colon it was 21.7 µM; with SF-539 CNS, 27.8 µM.
On to `CCOC(=O)C(NC(=O)c1ccccc1)(N1CCN(c2cc3c(cc2F)c(=O)c(C(=O)O)cn3C2CC2)CC1)C(F)(F)F` (stereo unspecified), for which the TGI in the test on SF-268 CNS worked out at 41.8 µM; in the test on SNB-75 CNS, 69.9 µM; in the test on PC-3 prostate it was 60.2 µM; in the test with CCRF-CEM leukemia it was 14.6 µM; with RXF 393 renal, 36.5 µM; in the test with T-47D breast, 46.1 µM. Moreover, the concentration for total growth inhibition (TGI) in the test on SW-620 colon came to 51.1 µM; with HCC-2998 colon, 38.6 µM; in the test on OVCAR-4 ovarian, 63.4 µM; with MOLT-4 leukemia it was 32.8 µM; in the test with HCT-116 colon, 31.6 µM; in the test on SF-539 CNS, 30.9 µM.
As for `O=C1C=C(Nc2ccc(S(=O)(=O)Nc3nccs3)cc2)c2ccccc2C1=O`, the concentration for total growth inhibition (TGI) is over 100 µM in the test on SF-268 CNS; 66.8 µM in the test on SNB-75 CNS; over 100 µM with PC-3 prostate; 48.1 µM in the test on CCRF-CEM leukemia; over 100 µM in the test with RXF 393 renal; over 100 µM in the test with T-47D breast. Besides, the TGI in the test on SW-620 colon is 43 µM; in the test on HCC-2998 colon, 47.3 µM; in the test with OVCAR-4 ovarian, over 100 µM; in the test with MOLT-4 leukemia, over 100 µM; with HCT-116 colon it was over 100 µM; in the test with SF-539 CNS it was 41.2 µM.
`CC(=O)c1c(N=[N+]=[N-])c2cccc3c2n(c1=O)CCC3`: the TGI in the test on SF-268 CNS was 38.6 µM; with SNB-75 CNS, 59.3 µM; with PC-3 prostate, 38.6 µM; in the test with CCRF-CEM leukemia, 51.8 µM; in the test on RXF 393 renal, 45.4 µM; in the test with T-47D breast, 60.4 µM. Further, the TGI in the test with SW-620 colon was 30.7 µM; in the test on HCC-2998 colon it was 32 µM; in the test on OVCAR-4 ovarian it was 52.3 µM; with MOLT-4 leukemia, 62.6 µM; in the test with HCT-116 colon, 33.5 µM; in the test with SF-539 CNS it was over 100 µM.
Turning to `CCOC(=O)C(Cc1ccc(O)cc1)Nc1nc(=O)c2c(=O)oc(Cl)cc2o1` (stereo unspecified), the TGI came to 17.3 µM with SF-268 CNS; 18.6 µM in the test with SNB-75 CNS; 21.4 µM in the test with PC-3 prostate; 23.4 µM with CCRF-CEM leukemia; 16 µM with RXF 393 renal; 25.7 µM in the test on T-47D breast. Further, the TGI with SW-620 colon worked out at 15.2 µM; in the test with HCC-2998 colon, 17.6 µM; with OVCAR-4 ovarian, 25.9 µM; with MOLT-4 leukemia, 10.1 µM; with HCT-116 colon, 20.9 µM; in the test with SF-539 CNS, 21.9 µM.
As to `COc1ccc(N2C(=O)C(=O)N(c3ccc(N=Nc4ccccc4)cc3)C2=S)cc1`, the total growth inhibition concentration (TGI) in the test with SF-268 CNS is 44.4 µM; in the test with SNB-75 CNS, 55.5 µM; in the test with PC-3 prostate, 33.8 µM; in the test on CCRF-CEM leukemia, over 100 µM; in the test on RXF 393 renal it was 32.4 µM; in the test with T-47D breast, 45.1 µM. The TGI in the test on SW-620 colon was 32.6 µM; with HCC-2998 colon, 30.1 µM; in the test on OVCAR-4 ovarian, 37.7 µM; in the test with MOLT-4 leukemia, over 100 µM; in the test on HCT-116 colon it was 35.2 µM; with SF-539 CNS it was 34.2 µM.
In the case of `CC(NC(=O)c1c(O)[nH]c(=S)[nH]c1=O)c1ccc([N+](=O)[O-])cc1` (stereo unspecified), the TGI was over 100 µM in the test with SF-268 CNS; 73.3 µM with SNB-75 CNS; over 100 µM in the test with PC-3 prostate; over 100 µM in the test on CCRF-CEM leukemia; over 100 µM in the test on RXF 393 renal; over 100 µM in the test on T-47D breast. The TGI in the test with SW-620 colon was over 100 µM; in the test with HCC-2998 colon, over 100 µM; in the test with OVCAR-4 ovarian, over 100 µM; with MOLT-4 leukemia it was 95 µM; with HCT-116 colon, over 100 µM; with SF-539 CNS, over 100 µM.
For `CC(=O)OC(CCC1(C)OC1COc1ccc(CCNC(=O)C=C(C)C)cc1)C(C)(C)OC(C)=O` (stereo unspecified), the total growth inhibition concentration (TGI) is over 100 µM with SF-268 CNS; 98.1 µM in the test on SNB-75 CNS; over 100 µM in the test with PC-3 prostate; over 92.7 µM with CCRF-CEM leukemia; over 31.6 µM in the test on RXF 393 renal; over 100 µM in the test on T-47D breast. For the same molecule, the TGI in the test with SW-620 colon was over 100 µM; in the test with HCC-2998 colon it was over 100 µM; in the test on OVCAR-4 ovarian, over 100 µM; in the test with MOLT-4 leukemia, 39.1 µM; in the test with HCT-116 colon, over 100 µM; in the test on SF-539 CNS, over 100 µM.
In the case of `COc1ccc(C2c3cc4c(cc3OC(N3CCOCC3)C2C)OCO4)cc1` (stereo unspecified), the TGI with SF-268 CNS was over 100 µM; in the test with SNB-75 CNS, over 100 µM; in the test with PC-3 prostate it was over 100 µM; in the test on CCRF-CEM leukemia, over 78.2 µM; in the test with RXF 393 renal, 63.3 µM; in the test with T-47D breast, 61.6 µM. Moreover, the total growth inhibition concentration (TGI) was over 100 µM with SW-620 colon; 67 µM in the test on HCC-2998 colon; over 100 µM with OVCAR-4 ovarian; over 31.6 µM with MOLT-4 leukemia; over 100 µM with HCT-116 colon; 68.6 µM with SF-539 CNS.
Turning to `O=C1OCC2OC(=O)c3cc(O)c(O)c(O)c3-c3c(O)c(O)c(O)c4c3C(=O)OC(C2OC(=O)c2cc(O)c(O)c(O)c2-c2c1cc(O)c(O)c2O)C1OC(=O)C2C4=C(O)C(=O)C23Oc2cc(O)c4c(c2[C@H]13)O[C@H](c1ccc(O)c(O)c1)[C@@H](O)C4` (stereo partly specified), the TGI is 50.7 µM with SF-268 CNS; 76 µM in the test on SNB-75 CNS; over 100 µM in the test with PC-3 prostate; over 100 µM in the test on CCRF-CEM leukemia; 34.9 µM with RXF 393 renal; 74.8 µM in the test with T-47D breast. The TGI in the test with SW-620 colon is 53.5 µM; in the test on HCC-2998 colon it was over 100 µM; with OVCAR-4 ovarian, 43.5 µM; with MOLT-4 leukemia, 54 µM; in the test with HCT-116 colon it was 40.3 µM.
On to `CS(=O)(=O)N1CC(CCl)c2ccc(O)cc21` (stereo unspecified), for which the concentration for total growth inhibition (TGI) in the test with SF-268 CNS worked out at 3.61 µM; with SNB-75 CNS, 8.4 µM; in the test on PC-3 prostate, 5.88 µM; with CCRF-CEM leukemia it was 23.8 µM; in the test with RXF 393 renal, 4.19 µM; with T-47D breast, 48.2 µM. Besides, the TGI was 11.5 µM in the test on SW-620 colon; 4.2 µM with HCC-2998 colon; 9.9 µM in the test on OVCAR-4 ovarian; over 100 µM in the test on MOLT-4 leukemia; 11.1 µM in the test with HCT-116 colon; 5.05 µM in the test with SF-539 CNS.
For `CN(C)CCCNc1ccc2ncn3c4ccc(O)cc4c(=O)c1c23`, the TGI with SF-268 CNS worked out at 13.5 µM; in the test on SNB-75 CNS, 11.7 µM; in the test with PC-3 prostate it was 14.4 µM; in the test on CCRF-CEM leukemia, 32.6 µM; in the test on RXF 393 renal, 2.91 µM; in the test on T-47D breast, 30.5 µM. Also, the TGI with SW-620 colon worked out at 16.4 µM; in the test on HCC-2998 colon it was 18.1 µM; in the test on OVCAR-4 ovarian, 8.01 µM; in the test on MOLT-4 leukemia it was 10.1 µM; in the test on HCT-116 colon, 11.2 µM; in the test with SF-539 CNS it was 15.7 µM.
Consider `CCC1CC(O)c2c(O)c3c(c(O)c2C1O)C(=O)c1cccc(O)c1C3=O` (stereo unspecified) (tested in a mixture with another compound), for which the TGI in the test with SF-268 CNS is 0.501 µM; with SNB-75 CNS, 0.049 µM and 0.0426 µM; in the test with PC-3 prostate, 0.0749 µM and 0.159 µM; in the test with CCRF-CEM leukemia, 0.085 µM and 0.0441 µM; in the test with RXF 393 renal, 0.0326 µM and 0.0459 µM; in the test with T-47D breast, 0.18 µM and 0.0352 µM. For the same molecule, the TGI in the test with SW-620 colon is 0.0707 µM and 0.128 µM; in the test with HCC-2998 colon, 0.0478 µM and 0.0298 µM; in the test with OVCAR-4 ovarian it was 0.0932 µM and 0.0821 µM; with MOLT-4 leukemia, 0.0755 µM and 0.0479 µM; in the test with HCT-116 colon, 0.741 µM; in the test on SF-539 CNS, 0.0957 µM and 0.0893 µM.
For `C=CC1(CC[C@]2(c3ccc(OC)c(OC)c3)C=[N+]([O-])O[C@H](O[C@@H]3CCCC[C@H]3C(C)(C)c3ccccc3)C2)OCC(C)(C)CO1`, the total growth inhibition concentration (TGI) with SF-268 CNS is 52.1 µM; in the test on SNB-75 CNS, over 52.2 µM; with PC-3 prostate it was 28.3 µM; in the test with CCRF-CEM leukemia, 23.8 µM; with RXF 393 renal, over 48.4 µM; with T-47D breast, over 46.7 µM. Moreover, the concentration for total growth inhibition (TGI) was over 46.5 µM in the test on SW-620 colon; 31.3 µM in the test on HCC-2998 colon; 28.9 µM in the test with OVCAR-4 ovarian; 21.6 µM in the test with MOLT-4 leukemia; 41.3 µM with HCT-116 colon; 31.2 µM in the test with SF-539 CNS.
On to `Cc1c2ccc3ccccc3c2c[n+]2ccccc12`, for which the TGI with SF-268 CNS is 6.92 µM; in the test with SNB-75 CNS it was 14.3 µM; in the test on PC-3 prostate, over 100 µM; in the test on CCRF-CEM leukemia, 37.2 µM; in the test on RXF 393 renal it was over 84.4 µM; with T-47D breast, 5.09 µM. For the same molecule, the total growth inhibition concentration (TGI) with SW-620 colon was 80.5 µM; in the test on HCC-2998 colon, 17.7 µM; with OVCAR-4 ovarian, 38.8 µM; with MOLT-4 leukemia it was 48.7 µM; with HCT-116 colon, over 83.3 µM; with SF-539 CNS, 43.4 µM.
As for `O=C1CC(=O)NC(=NN2C(=O)/C(=C/c3ccc(Cl)c(Cl)c3)N=C2c2ccccc2)N1`, the TGI in the test with SF-268 CNS is over 100 µM; in the test on SNB-75 CNS it was 81.8 µM; with PC-3 prostate it was 72.7 µM; in the test on CCRF-CEM leukemia, 45.3 µM; with RXF 393 renal, 92.6 µM; with T-47D breast it was over 100 µM. Moreover, the TGI with SW-620 colon is over 100 µM; in the test on HCC-2998 colon it was 39.6 µM; in the test with OVCAR-4 ovarian it was over 100 µM; in the test with MOLT-4 leukemia it was 50.8 µM; with HCT-116 colon, 38 µM; in the test on SF-539 CNS it was 39.6 µM.
